{"source": "patent US12590108B2", "about": "“Boracic acid compound” (Phaeno Therapeutics Co., Ltd, priority 2020, dated 2026)", "key": {"[1]": {"system": "Klebsiella pneumoniae ATCC BAA-1705", "assay": "Mouse lung infection model, bacterial load", "type": "in vivo, CD-1 female mice", "details": "endpoint 12 h", "method": "(§1) 36 CD-1 female mice were divided into 12 cages with 3 […] in each cage. The day of infection was denoted as day 0.\n(§2) Immunosuppressant cyclophosphamide at 150 mg/kg was injected intraperitoneally on day −4 and immunosuppressant cyclophosphamide at 100 mg/kg was injected intraperitoneally on day −1 to induce immunodeficient mice.\nOn day −1, the strain Klebsiella pneumoniae ATCC BAA-1705 was resuscitated on an MHA plate. Resuscitated colonies were picked and dissolved in sterile physiological saline to prepare a bacterial solution with a concentration of 2.75E+08 CFU/mL for lung infection by nasal drip. The initial time of infection was denoted as 0 h, and 50 μL of the bacterial solution was injected into each mouse by nasal drip at 0 h, that is, the inoculation amount was 1.38E+07 CFU/mouse. 2 h after infection, dosing was performed according to the experimental scheme. The specific experimental scheme was as follows (see Table 6): • (1) 2 h after infection: for the 1st cage of mice, at the endpoint, lung tissue was taken and placed in 10 mL of sterile physiological saline, the tissue was homogenized by a homogenizer, and the homogenate was diluted in a gradient and spotted in a plate, with two replicates for each mouse. • (2) 2 h after infection: the 2nd to 12th cages were respectively treated at 10 mL/kg by volume according to the body weight of the mice, the 2nd cage of mice were given a vehicle by intravenous injection every 2 h, and the endpoint was 12 h; the 3rd cage of mice were given 100 mg/kg of meropenem by intravenous injection every 2 h, and the endpoint was 12 h; the 4th cage of mice were given 100 mg/kg of meropenem and 20 mg/kg of QPX7728 by intravenous injection every 2 h, and the endpoint was 12 h; the 5th cage of mice were given 100 mg/kg of meropenem and 100 mg/kg of compound 15 by intravenous injection every 2 h, and the endpoint was 12 h; the 6th cage of mice were given 100 mg/kg of meropenem and 20 mg/kg of compound 15 by intravenous injection every 2 h, and the endpoint was 12 h; the 7th cage of mice were given 100 mg/kg of meropenem and 4 mg/kg of compound 15 by intravenous injection every 2 h, and the endpoint was 12 h; the 8th cage of mice were given 100 mg/kg of cefepime by intravenous injection every 2 h, and the endpoint was 12 h; the 9th cage of mice were given 100 mg/kg of cefepime and 20 mg/kg of QPX7728 by intravenous injection every 2 h, and the endpoint was 12 h; the 10th cage of mice were given 100 mg/kg of cefepime and 100 mg/kg of compound 15 by intravenous injection every 2 h, and the endpoint was 12 h: the 11th cage of mice were given 100 mg/kg of cefepime and 20 mg/kg of compound 15 by intravenous injection every 2 h, and the endpoint was 12 h; and the 12th cage of mice were given 100 mg/kg of cefepime and 4 mg/kg of compound 15 by intravenous injection every 2 h, and the endpoint was 12 h. At the endpoint, lung tissue was taken and placed in 10 mL of sterile physiological saline, the tissue was homogenized by a homogenizer, and the homogenate was diluted in a gradient and spotted in a plate, with two replicates for each mouse. The bacterial load in the lung tissue of the mice was counted, and the experiment was summarized as follows (see Table 7): […]"}, "[2]": {"system": "Klebsiella pneumoniae ATCC BAA-1705", "assay": "Mouse thigh muscle infection model, bacterial load", "type": "in vivo, CD-1 female mice", "details": "endpoint 12 h", "method": "as §1, §2\nOn day −1, the strain Klebsiella pneumoniae ATCC BAA-1705 was resuscitated on an MHA plate. Resuscitated colonies were picked and dissolved in sterile physiological saline to prepare a bacterial solution with a concentration of 5.6E+07 CFU/mL for thigh muscle infection in mice. The initial time of infection was denoted as 0 h, and 100 μL of the bacterial solution was injected into each mouse at the thigh muscle at 0 h, that is, the inoculation amount was 5.6E+06 CFU/mouse. 2 h after infection, dosing was performed according to the experimental scheme. The specific experimental scheme was as follows (see Table 4): • (1) 2 h after infection: for the 1st cage of mice, at the endpoint, thigh muscle tissue was taken and placed in 10 mL of sterile physiological saline, the tissue was homogenized by a homogenizer, and the homogenate was diluted in a gradient and spotted in a plate, with two replicates for each mouse. • (2) 2 h after infection: the 2nd to 12th cages were respectively treated at 10 mL/kg by volume according to the body weight of the mice, the 2nd cage of mice were given a vehicle by intravenous injection every 2 h, and the endpoint was 12 h; the 3rd cage of mice were given 100 mg/kg of meropenem by intravenous injection every 2 h, and the endpoint was 12 h; the 4th cage of mice were given 100 mg/kg of meropenem and 20 mg/kg of QPX7728 by intravenous injection every 2 h, and the endpoint was 12 h; the 5th cage of mice were given 100 mg/kg of meropenem and 100 mg/kg of compound 15 by intravenous injection every 2 h, and the endpoint was 12 h; the 6th cage of mice were given 100 mg/kg of meropenem and 20 mg/kg of compound 15 by intravenous injection every 2 h, and the endpoint was 12 h; the 7th cage of mice were given 100 mg/kg of meropenem and 4 mg/kg of compound 15 by intravenous injection every 2 h, and the endpoint was 12 h; the 8th cage of mice were given 100 mg/kg of cefepime by intravenous injection every 2 h, and the endpoint was 12 h; the 9th cage of mice were given 100 mg/kg of cefepime and 20 mg/kg of QPX7728 by intravenous injection every 2 h, and the endpoint was 12 h; the 10th cage of mice were given 100 mg/kg of cefepime and 100 mg/kg of compound 15 by intravenous injection every 2 h, and the endpoint was 12 h; the 11th cage of mice were given 100 mg/kg of cefepime and 20 mg/kg of compound 15 by intravenous injection every 2 h, and the endpoint was 12 h; and the 12th cage of mice were given 100 mg/kg of cefepime and 4 mg/kg of compound 15 by intravenous injection every 2 h, and the endpoint was 12 h. At the endpoint of 12 h, thigh muscle tissue was taken and placed in 10 mL of sterile physiological saline, the tissue was homogenized by a homogenizer, and the homogenate was diluted in a gradient and spotted in a plate, with two replicates for each mouse. The bacterial load in the thigh muscle tissue of the mice was counted, and the experiment was summarized as follows (see Table 5): […]"}, "[3]": {"details": "antibiotic alone 100 mg/kg i.v. q2h"}, "[4]": {"details": "cefepime 100 mg/kg + inhibitor 20 mg/kg i.v. q2h"}, "[5]": {"details": "meropenem 100 mg/kg + inhibitor 20 mg/kg i.v. q2h"}}}
{"smiles": "CO/N=C(\\C(=O)N[C@@H]1C(=O)N2C(C(=O)[O-])=C(C[N+]3(C)CCCC3)CS[C@H]12)c1csc(N)n1", "note": "[Cefepime, cefepime, reference compound]", "values": [{"measurement": "Average CFU in mice (lung tissue)", "setting": "[1]; [3]", "value": "1.90E+08", "unit": "CFU/mouse"}, {"measurement": "Average CFU in mice (thigh muscle tissue)", "setting": "[2]; [3]", "value": "4.25E+07", "unit": "CFU/mouse"}]}
{"smiles": "O=C(O)c1c(F)ccc2c1OB(O)[C@@H]1C[C@H]21", "note": "[QPX7728, reference compound]", "values": [{"measurement": "Average CFU in mice (lung tissue)", "setting": "[1]; [4]", "value": "2.68E+06", "unit": "CFU/mouse"}, {"measurement": "Average CFU in mice (lung tissue)", "setting": "[1]; [5]", "value": "8.42E+06", "unit": "CFU/mouse"}, {"measurement": "Average CFU in mice (thigh muscle tissue)", "setting": "[2]; [4]", "value": "1.50E+07", "unit": "CFU/mouse"}, {"measurement": "Average CFU in mice (thigh muscle tissue)", "setting": "[2]; [5]", "value": "1.02E+07", "unit": "CFU/mouse"}]}
